Assay results as given in patent US20220401514A1, “ANTIMICROBIAL, BACTERIOPHAGE-DERIVED POLYPEPTIDES AND THEIR USE AGAINST GRAM-NEGATIVE AND ACID-FAST BACTERIA” (CONTRAFECT CORPORATION, priority 2019, published 2022).
Read-outs that look alike come from different tables or passages of the source.

Legend:
M. smegmatis = assay: 45 hr MIC against M. smegmatis (NTM), Mueller Hinton broth; assay type: cell-based, Mycobacterium smegmatis
Pseudomonas aeruginosa = assay: microbe, parasite or virus in culture; assay type: cell-based; settings: P. aeruginosa isolates (n per peptide in table)
M. avium = assay: 45 hr MIC against M. avium (NTM); assay type: cell-based, Mycobacterium avium; settings: M. avium Chester ATCC 700898
[1] = test system: M. kansasii Hauduroy ATCC 12478; assay: 45 hr MIC against M. kansasii (NTM), Mueller Hinton broth; assay type: cell-based, Mycobacterium kansasii
Acinetobacter baumannii = assay: microbe, parasite or virus in culture; assay type: cell-based; settings: for MIC50 / MIC100 / MIC Range: A. baumannii isolates (n per peptide in table); for MIC: Acinetobacter baumannii ATCC BAA 747, CAA supplemented with human serum
Klebsiella pneumoniae = assay type: cell-based; settings: for MIC50 / MIC100 / MIC Range: K. pneumoniae isolates (n per peptide in table); for MIC: Klebsiella pneumoniae HM-44, CAA supplemented with human serum
Procedure: (§1) Determination of Minimal Inhibitory Concentrations (MIC).
(§2) Additional MIC testing was performed for several peptides against the ESKAPE pathogens Escherichia coli, Enterobacter cloacae, Klebsiella pneumoniae, and Acinetobacter baumannii, in CAA supplemented with human serum (Table D).

S. maltophilia = assay: MIC against S. maltophilia isolates; assay type: cell-based, Stenotrophomonas maltophilia; settings: S. maltophilia isolates (n per peptide in table)
Procedure: as §1
In addition to the results discussed above in Example 3, further testing was conducted on several Chp peptides. MIC values were determined against different species, including P. aeruginosa, K. pneumoniae, A. baumannii, E. cloacae, E. coli, and S. maltophilia, and the results are presented below in Tables 40-45, wherein n=number of isolates tested for each species and MIC is measured as μg/mL.

[2] = test system: Mycobacterium tuberculosis strains
Procedure: MIC values for various Chp peptides were determined using the CLSI method for broth microdilution in 96-well microtiter format.
Next, MIC values for various Chp peptides were determined using the CLSI method above for broth microdilution in 96-well microtiter format for two different Mycobacterium tuberculosis strains. The MIC was determined as explained above for the NTM strains.

M. scrofulaceum = assay: 45 hr MIC against M. scrofulaceum (NTM); assay type: cell-based, Mycobacterium scrofulaceum; settings: M. scrofulaceum Prissick and Masson ATCC 19981
M. fortuitum = assay: 45 hr MIC against M. fortuitum (NTM); assay type: cell-based, Mycobacterium fortuitum; settings: M. fortuitum subsp. Fortuitum da Costa Cruz. ATCC 6841
M. intracellulare = assay: 45 hr MIC against M. intracellulare (NTM); assay type: cell-based, Mycobacterium intracellulare; settings: M. intracellulare (Cuttino and McCabe) Runyon ATCC 13950
[3] = Stability assessment in 100% CAA; assay type: in vitro ADME; design: unit not given beside the values
Procedure: Stability was assessed after incubation in 100% human serum at 37° C. after 10 minutes, 1 hour, and 2 hours.
Stability assessment was further conducted in 100% CAA and rabbit serum using the same methodology discussed above.

[4] = test system: carbapenem-resistant P. aeruginosa clinical isolate CFS-1292; assay: MIC by modified CLSI broth microdilution against P. aeruginosa CFS-1292 (CAA, CAA + human serum); assay type: cell-based, Pseudomonas aeruginosa; settings: for MIC (μg/mL) against CFS-1292 in 100% CAA (1st run/2nd run): 1st run or single value
[5] = test system: carbapenem-resistant bacterial strains; assay: organism not typed; assay type: cell-based
Excerpt: as §1

Escherichia coli = assay: microbe, parasite or virus in culture; assay type: cell-based; settings: for MIC: Escherichia coli ATCC 25922, CAA supplemented with human serum; for MIC50 / MIC100 / MIC Range: E. coli isolates (n per peptide in table)
Procedure: as §1, §2

Enterobacter cloacae = assay: microbe, parasite or virus in culture; assay type: cell-based; settings: for MIC: Enterobacter cloacae ATCC 13047, CAA supplemented with human serum; for MIC50 / MIC100 / MIC Range: E. cloacae isolates (n per peptide in table)
Procedure: as §1, §2

[6] = Mycobacterium tuberculosis (Zopf) Lehmann and Neumann ATCC 25177
[7] = Mycobacterium tuberculosis (Zopf) Lehmann and Neumann ATCC 35817
[8] = carbapenem-resistant isolate PA19
[9] = carbapenem-resistant isolate PA20
[10] = carbapenem-resistant isolate PA21
[11] = carbapenem-resistant isolate PA22
[12] = carbapenem-resistant isolate PA23
[13] = carbapenem-resistant isolate PA24
[14] = carbapenem-resistant isolate WLC-452

Sequence | 45 hr MIC (M. smegmatis; M. smegmatis MC^2 155, Run #1) [µg/mL] | 45 hr MIC (M. smegmatis; M. smegmatis MC^2 155, Run #2) [µg/mL] | MIC50 (Pseudomonas aeruginosa) [µg/mL] | MIC100 (Pseudomonas aeruginosa) [µg/mL] | 45 hr MIC (M. avium) [µg/mL] | 45 hr MIC [1] [µg/mL] | MIC50 (Acinetobacter baumannii) [µg/mL] | MIC100 (Acinetobacter baumannii) [µg/mL] | MIC Range (Acinetobacter baumannii) [µg/mL] | MIC50 (Klebsiella pneumoniae) [µg/mL] | MIC100 (Klebsiella pneumoniae) [µg/mL] | MIC50 (S. maltophilia) [µg/mL] | MIC100 (S. maltophilia) [µg/mL] | MIC [2, 6] [µg/mL] | MIC [2, 7] [µg/mL] | 45 hr MIC (M. scrofulaceum) [µg/mL] | 45 hr MIC (M. fortuitum) [µg/mL] | 45 hr MIC (M. intracellulare) [µg/mL] | MIC (μg/mL) against CFS-1292 in 100% CAA (1st run/2nd run) [4] [µg/mL] | MIC (μg/mL) against CFS-1292 in CAA + […] human serum [4] [µg/mL] | other results
MAKKIRNKARDRRIFTRTASRMHKANRTPRFMRGGIRL [ALCES1] | 1 | 2 | >8 | >8 | 8 | 2 | 2 | 2 | 1 to 2 | >8 | >8 | 4 | 8 | 32 | 8 | 2 | 4 | 2 |  |  | 
MAYRGFKTSRVVKHRVRRRWFNHRRRYR [Spi1] | 2 | 16 | 4 | 8 | >64 | 0.5 | 1 | 1 | 1 | 2 | 4 | 2 | 2 | 32 | 16 | 2 | 8 | 4 | 2 | 0.25 | MIC Range (Pseudomonas aeruginosa): 2 to 8 µg/mL; MIC Range (Klebsiella pneumoniae): 2 to 4 µg/mL; MIC (100% CAA) [3]: 1; MIC [5, 8]: 2 µg/mL; MIC [5, 9]: 4 µg/mL; MIC [5, 10]: 8 µg/mL; MIC [5, 11]: 4 µg/mL; MIC [5, 12]: 8 µg/mL; MIC [5, 13]: 4 µg/mL; MIC [5, 14]: 2 µg/mL
MIVRRHKMSRRRSRKLFSKTASRTRSKNLRSRPMRGGYRI [Unp4] |  | 16 |  |  | 1 | 4 |  |  |  |  |  |  |  | 32 | 16 | 4 | 4 | 4 | 2 | >16 | 
MKMRKRTDKRVFTRTAAKSKKVNIAPKIFRGGIRL [Unp1] | 4 | 2 |  |  | 1 | 8 |  |  |  |  |  |  |  |  |  | 8 | 8 | 32 | 4 | 4 | MIC (Acinetobacter baumannii): 8 µg/mL; MIC (Klebsiella pneumoniae): 8 µg/mL; MIC (100% CAA) [3]: 4; MIC (Escherichia coli): 0.5 µg/mL; MIC (Enterobacter cloacae): >32 µg/mL
MRRKVKNTKRHQWRLTHSARSIKRANIMPSNPRGGRRF [Spi2] | 4 | 4 | >8 | >8 | >64 | 1 | 2 | 2 | 2 to 8 | >8 | >8 | >8 | >8 | 8 | 8 | 8 | 4 | >64 | 16 | 0.25 | MIC Range (Pseudomonas aeruginosa): >8 µg/mL; MIC (Acinetobacter baumannii): 16 µg/mL; MIC Range (Klebsiella pneumoniae): >8 µg/mL; MIC (Klebsiella pneumoniae): 16 µg/mL; MIC (100% CAA) [3]: 4; MIC Range (S. maltophilia): >8 µg/mL; MIC [5, 8]: >8 µg/mL; MIC [5, 9]: >8 µg/mL; MIC [5, 10]: >8 µg/mL; MIC [5, 11]: >8 µg/mL; MIC [5, 12]: >8 µg/mL; MIC [5, 13]: >8 µg/mL; MIC [5, 14]: >8 µg/mL; MIC50 (Escherichia coli): 4 µg/mL; MIC100 (Escherichia coli): >8 µg/mL; MIC (Escherichia coli): 0.25 µg/mL; MIC50 (Enterobacter cloacae): >8 µg/mL; MIC100 (Enterobacter cloacae): >8 µg/mL; MIC (Enterobacter cloacae): 4 µg/mL
MRRPRKMNYKKSKRMFSRTAARTHRKNSLRGSRPMRGGIRL [Gkh1] | 4 | 4 | 8 | >8 | 4 | 2 | 0.5 | 1 | 0.25 to 2 | 4 | 8 | >8 | >8 | 32 | 4 | 8 | 1 | 4 | 1 | 1 | MIC (Acinetobacter baumannii): 2 µg/mL; MIC Range (Klebsiella pneumoniae): 1 to 8 µg/mL; MIC (Klebsiella pneumoniae): 0.5 µg/mL; MIC (100% CAA) [3]: 0.5; MIC [5, 8]: 2 µg/mL; MIC [5, 9]: >8 µg/mL; MIC [5, 10]: >8 µg/mL; MIC [5, 11]: >8 µg/mL; MIC [5, 12]: >8 µg/mL; MIC [5, 13]: 8 µg/mL; MIC [5, 14]: 2 µg/mL; MIC50 (Escherichia coli): 2 µg/mL; MIC100 (Escherichia coli): 2 µg/mL; MIC Range (Escherichia coli): 0.5 to 8 µg/mL; MIC (Escherichia coli): 1 µg/mL; MIC50 (Enterobacter cloacae): 1 µg/mL; MIC100 (Enterobacter cloacae): 2 µg/mL; MIC Range (Enterobacter cloacae): 0.5 to 8 µg/mL; MIC (Enterobacter cloacae): 32 µg/mL
MSKKRSRMSRRRSKKLFSKTALRTKSVNTRPPMRGGFRF [Chp8] | 4 | 8 | 8 | >8 | 8 | 4 | 0.5 | 1 | 0.25 to 2 | 4 | 8 | >8 | >8 | 32 | 8 | 4 | 2 | 4 | 0.5 | 2 | MIC (Acinetobacter baumannii): 2 µg/mL; MIC Range (Klebsiella pneumoniae): 2 to 8 µg/mL; MIC (Klebsiella pneumoniae): 4 µg/mL; MIC (100% CAA) [3]: 0.5; MIC [5, 8]: 1 µg/mL; MIC [5, 9]: >8 µg/mL; MIC [5, 10]: >8 µg/mL; MIC [5, 11]: >8 µg/mL; MIC [5, 12]: >8 µg/mL; MIC [5, 13]: 8 µg/mL; MIC [5, 14]: 4 µg/mL; MIC50 (Escherichia coli): 2 µg/mL; MIC100 (Escherichia coli): 4 µg/mL; MIC Range (Escherichia coli): 0.5 to 4 µg/mL; MIC (Escherichia coli): 0.5 µg/mL; MIC50 (Enterobacter cloacae): 2 µg/mL; MIC100 (Enterobacter cloacae): 4 µg/mL; MIC Range (Enterobacter cloacae): 1 to 8 µg/mL; MIC (Enterobacter cloacae): 16 µg/mL
